Data taken from patent US20240360114A1 (SIRONAX LTD., priority 2021, published 2024).
pEC50: −log10 of the molar value.

test system: HT-1080 cells; assay: HT-1080 cell viability assay (ferroptosis induced by RSL3, Cell Titer-Glo); type: cell-based; conditions: Homo sapiens, HT-1080, 20 h, ferroptosis inducer RSL3, 20 hours, ferroptosis inhibitory activity, Table 2
In short: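 EC50 fitted by sigmoidal dose-response regression on luminescent viability data normalized to untreated cells. Compounds ran as a 10-point, 3-fold series from 1.1 μM alongside RSL3 for 20 hours, after overnight seeding.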

SMILES | pEC50
CCC(C)(C)c1ccc(NC2CC(CN)C2)cc1 (stereo not drawn) [Compound 333, N-(3-(aminomethyl)cyclobutyl)-4-(tert-pentyl)aniline] | 7.00 to 10.00
CC1CCC(Nc2ccc(C(C)(C)C)cc2)CC1 (stereo not drawn) [Compound 334, 4-(tert-butyl)-N-(4-methylcyclohexyl)aniline] | 6.00 to 7.00
CC1(C)CCC(C)(C)c2cc(NC[C@H]3CC[C@H](N)CC3)ccc21 [Compound 338, N-(((1r,4r)-4-aminocyclohexyl)methyl)-5,5,8,8-tetramethyl-5,6,7,8-tetrahydronaphthalen-2-amine] | 7.00 to 10.00
CC1(CN)CCC(Nc2ccc(C(C)(C)C)cc2)CC1 (stereo not drawn) [Compound 339, N-(4-(aminomethyl)-4-methylcyclohexyl)-4-(tert-butyl)aniline] | 7.00 to 10.00
CC(C)(C)c1ccc(NCC2CCC(CN)C2)cc1 (stereo not drawn) [Compound 340, N-((3-(aminomethyl)cyclopentyl)methyl)-4-(tert-butyl)aniline] | 7.00 to 10.00
C[C@@H](O)[C@H](N)CNC1CCC(Nc2ccc(C(C)(C)C)cc2)CC1 (stereo partly drawn) [Compound 341, (2R, 3R)-3-amino-4-((4-((4-(tert-butyl)phenyl)amino)cyclohexyl)amino) butan-2-ol] | 7.00 to 10.00
CCC(C)(C)c1ccc(NC[C@H]2CC[C@H](N)CC2)cc1 [Compound 342, N-(((1r,4r)-4-aminocyclohexyl)methyl)-4-(tert-pentyl)aniline] | 7.00 to 10.00
CC(C)(C)c1ccc(NC2CCC(CNC(=N)N)CC2)cc1 (stereo not drawn) [Compound 344, 1-((4-((4-(tert-butyl)phenyl)amino)cyclohexyl)methyl)guanidine] | 7.00 to 10.00
CC(C)(C)c1ccc(N[C@@H]2C[C@H](N)C[C@H](N)C2)cc1 [Compound 345, (1s,3R,5S)-N1-(4-(tert-butyl)phenyl)cyclohexane-1,3,5-triamine] | 6.00 to 7.00
Cn1cc(NCC2CCC(Nc3ccc(C(C)(C)C)cc3)CC2)cn1 (stereo not drawn) [Compound 346, N-((4-((4-(tert-butyl)phenyl)amino)cyclohexyl)methyl)-1-methyl-1H-pyrazol-4-amine] | 7.00 to 10.00
[2H]C1([2H])CC(N)CC([2H])([2H])C1([2H])Nc1ccc(C(C)(C)C)cc1 (stereo not drawn) [Compound 347, N1-(4-(tert-butyl)phenyl)cyclohexane-1,2,2,6,6-d5-1,4-diamine] | 7.00 to 10.00
CC(C)(C)c1ccc(NC2CCC(CNc3cn[nH]c3)CC2)cc1 (stereo not drawn) [Compound 348, N-((4-((4-(tert-butyl)phenyl)amino)cyclohexyl)methyl)-1H-pyrazol-4-amine] | 7.00 to 10.00
CC(C)(C)c1ccc(NC2CCC(NCC(O)CN)CC2)cc1 (stereo not drawn) [Compound 349A, 1-amino-3-((4-((4-(tert-butyl)phenyl)amino)cyclohexyl)amino)propan-2-ol] | 7.00 to 10.00
CC(Nc1ccc(C(C)(C)C)cc1)[C@H]1CC[C@H](N)CC1 (stereo partly drawn) [Compound 350, N—((S)-1-((1r,4S)-4-aminocyclohexyl)ethyl)-4-(tert-butyl)aniline] | 7.00 to 10.00
CC(C)(C)c1ccc(N[C@@H]2C[C@H](N)C[C@H](Nc3ccc(C(C)(C)C)cc3)C2)cc1 [Compound 351, (1R, 3S,5r)-N1,N3-bis(4-(tert-butyl)phenyl)cyclohexane-1,3,5-triamine] | 7.00 to 10.00
COCCc1ccc(NC2CCC(N)CC2)cc1CCOC (stereo not drawn) [Compound 352, N1-(3,4-bis(2-methoxyethyl)phenyl)cyclohexane-1,4-diamine] | 5.00 to 6.00
CC(C)Oc1ccc(NC[C@H]2CC[C@H](N)CC2)cc1 [Compound 353, N-(((1r,4r)-4-aminocyclohexyl)methyl)-4-isopropoxyaniline] | 7.00 to 10.00
N[C@H]1CC[C@H](CNc2ccc(N3CCC(C(F)(F)F)CC3)cc2)CC1 [Compound 356, N-(((1r,4r)-4-aminocyclohexyl)methyl)-4-(4-(trifluoromethyl)piperidin-1-yl)aniline] | 7.00 to 10.00
CNC(=O)C1CCC(Nc2ccc(N3CCC(C(F)(F)F)CC3)cc2)CC1 (stereo not drawn) [Compound 365, N-methyl-4-((4-(4-(trifluoromethyl)piperidin-1-yl)phenyl)amino)cyclohexane-1-carboxamide] | 7.00 to 10.00
CN(C)C(=O)C1CCC(Nc2ccc(N3CCC(C(F)(F)F)CC3)cc2)CC1 (stereo not drawn) [Compound 366, N,N-dimethyl-4-((4-(4-(trifluoromethyl)piperidin-1-yl)phenyl)amino)cyclohexane-1-carboxamide] | 7.00 to 10.00

Second part, the compound after the results:

pEC50 | SMILES
7.00 to 10.00 | CC1(C)CCCc2cc(NC3CCC(N)CC3)ccc21 (stereo not drawn) [Compound 337A, 1-N-(5,5-dimethyl-5,6,7,8-tetrahydronaphthalen-2-yl)cyclohexane-1,4-diamine]
7.00 to 10.00 | CN1CC(C)(C)c2ccc(NC3CCC(N)CC3)cc21 (stereo not drawn) [Compound 343, N1-(1,3,3-trimethylindolin-6-yl)cyclohexane-1,4-diamine]
7.00 to 10.00 | N[C@H]1CC[C@H](Nc2ccc(N3CCC(C(F)(F)F)CC3)cc2)CC1 [Compound 354, (1r,4r)-N1-(4-(4-(trifluoromethyl)piperidin-1-yl)phenyl)cyclohexane-1,4-diamine]
7.00 to 10.00 | N[C@H]1CC[C@@H](Nc2ccc(N3CCC(C(F)(F)F)CC3)cc2)CC1 [Compound 355, (1s,4s)-N1-(4-(4-(trifluoromethyl)piperidin-1-yl)phenyl)cyclohexane-1,4-diamine]
7.00 to 10.00 | NC1CC2(C1)CC(Nc1ccc(N3CCC(C(F)(F)F)CC3)cc1)C2 (stereo not drawn) [Compound 357, N2-(4-(4-(trifluoromethyl)piperidin-1-yl)phenyl)spiro[3.3]heptane-2,6-diamine]
7.00 to 10.00 | CC(C)C1CCN(c2ncc(NC3CC4(CC(N)C4)C3)cn2)CC1 (stereo not drawn) [Compound 358, N2-(2-(4-isopropylpiperidin-1-yl)pyrimidin-5-yl)spiro[3.3]heptane-2,6-diamine]
7.00 to 10.00 | NC1CC2(C1)CC(Nc1cnc(N3CCC(C(F)(F)F)CC3)nc1)C2 (stereo not drawn) [Compound 359, N2-(2-(4-(trifluoromethyl)piperidin-1-yl)pyrimidin-5-yl)spiro[3.3]heptane-2,6-diamine]
7.00 to 10.00 | CC(C)C1CCN(c2ncc(NC[C@H]3CC[C@H](N)CC3)cn2)CC1 [Compound 360, N-(((1r,4r)-4-aminocyclohexyl)methyl)-2-(4-isopropylpiperidin-1-yl)pyrimidin-5-amine]
7.00 to 10.00 | CC(C)C1CCN(c2ncc(NC[C@H]3CC[C@@H](N)CC3)cn2)CC1 [Compound 361, N-(((1s,4s)-4-aminocyclohexyl)methyl)-2-(4-isopropylpiperidin-1-yl)pyrimidin-5-amine]
7.00 to 10.00 | CC(C)C1CCN(c2ncc(NC3C[C@H]4CC(N)C[C@H]4C3)cn2)CC1 (stereo partly drawn) [Compound 362, (3aR, 6aS)-N2-(2-(4-isopropylpiperidin-1-yl)pyrimidin-5-yl) octahydropentalene-2,5-diamine]
7.00 to 10.00 | NC1C[C@@H]2CC(Nc3ccc(N4CCC(C(F)(F)F)CC4)cc3)C[C@@H]2C1 (stereo partly drawn) [Compound 363, (3aR, 6aS)-N2-(4-(4-(trifluoromethyl)piperidin-1-yl)phenyl) octahydropentalene-2,5-diamine]
7.00 to 10.00 | NC1CC2(C1)CC(Nc1ccc(N3CCC(C(F)(F)F)CC3)cc1F)C2 (stereo not drawn) [Compound 364, N2-(2-fluoro-4-(4-(trifluoromethyl)piperidin-1-yl)phenyl)spiro[3.3]heptane-2,6-diamine]

same assay, conditions: Homo sapiens, ferroptosis inducer RSL3, 20 hours, ferroptosis inhibitory activity, Table 2

SMILES | pEC50
CC(C)(C)c1ccc(NCCC2CCC(N)CC2)cc1 (stereo not drawn) [Compound 336A, N-(2-(4-aminocyclohexyl)ethyl)-4-(tert-butyl)aniline] | 7.00 to 10.00
